Results: patent US20080260724A1, “Drug Induced Exposure Of The Fungal Pro-Inflammatory Molecule Beta-Glucan” (priority 2005, published 2008)

Legend:
[1] = tested on: wild-type C. albicans (CAF2); test: β-glucan exposure: anti-β-glucan antibody staining, microscopy and FACS; assay type: cell-based; settings: for Mean fluorescence intensity (MFI), anti-β-glucan staining: FACS with PE-labeled secondary antibody
Protocol: (§1) Fungi were grown overnight in YPD rich medium for yeast-form growth and RPMI 1640 for hyphal growth. C. albicans was grown at 37° C.; S. cerevisiae was grown at 30° C. For CF treatment, overnight cultures of C. albicans CAF2 were diluted 1:1,000 into fresh YPD or RPMI 1640 containing dilutions of CF (caspofungin acetate, Candidas formulation, Merck, Whitehouse Station, N.J., United States) and grown overnight. […] For viability, cells were stained with propidium iodide (Sigma, St. Louis, Mo., United States).
Fungi were grown overnight, washed, blocked in PBS+2% BSA, and stained with either the anti-β-glucan antibody (followed by Cy3- or PE-labeled secondary antibody), Alexa Fluor-labeled Dectin-CRD, or Dectin-CRD-anti-Myc. Staining with antibody and Dectin-CRD is described above for the screen. For staining with Dectin-CRD-anti-Myc, Dectin-CRD was preincubated with FITC-labeled anti-Myc (Invitrogen) at a ratio of 3.4 μg of Dectin-CRD+10 μl of anti-Myc, and then added to fungi at 1:100 on ice. Preincubation of Dectin-CRD with anti-Myc creates a probe with the same approximate size as the anti-β-glucan antibody but with the specificity of Dectin-1. Images of stained cells were taken using a Nikon TE2000-S microscope (Nikon, Tokyo, Japan) equipped with Spot RT camera (Diagnostic Instruments, Sterling Heights, Mich., United States) and processed in Photoshop (Adobe Systems, Palo Alto, Calif., United States). Fluorescence was quantified on a FACScalibur cytometer (Becton-Dickinson, Palo Alto, Calif., United States); cells were gated by forward and side scatter based on wild-type cell size and shape, and mean fluorescence intensity of 20,000 labeled cells was calculated using Cellquest software (Becton-Dickinson).
Cultures grown at one-quarter and one-eighth of the CF MIC50 (minimal inhibitory concentration to inhibit 50% of the organisms) were stained with anti-β-glucan antibody and Cy3-labeled secondary antibody (FIGS. 2A and D) for visualization by microscopy or with PE-labeled secondary antibody (FIG. 2B) for FACS quantification. […]

[2] = tested on: wild-type C. albicans (CAF2); test: Viability by propidium iodide staining / microscopic examination; assay type: cell-based
Protocol: as §1
Cultures grown at one-quarter and one-eighth of the CF MIC50 (minimal inhibitory concentration to inhibit 50% of the organisms) were stained with anti-β-glucan antibody and Cy3-labeled secondary antibody (FIGS. 2A and D) for visualization by microscopy or with PE-labeled secondary antibody (FIG. 2B) for FACS quantification. […] Concurrently, cells were labeled briefly with propidium iodide to assess viability and visualized by epifluorescence microscopy or quantified by FACS (FIG. 2C). Cells grown overnight in YPD with or without CF were UV-inactivated and then exposed to BMDMs at a yeast:macrophage ratio of 10:1. Supernatants were taken at 6 h and assayed for TNFα (FIG. 2E).

C. albicans CAF2 = test: Growth inhibition of C. albicans by caspofungin (MIC50); assay type: cell-based; settings: C. albicans CAF2 grown overnight in dilutions of CF
Protocol: as §1

β-glucan receptor = test: Laminarin preincubation of BMDMs (β-glucan receptor blocking), cytokine ELISA; assay type: cell-based, BL/6 mice
Protocol: RAW264.7 macrophages (ATCC, Manassas, Va., United States) were cultured in RPMI-10 (RPMI 1640 with 10% heat-inactivated fetal bovine serum and standard concentrations of penicillin-streptomycin; GIBCO, San Diego, Calif., United States). Cells were collected and plated in 24-well plates at 5×10^5 cells/well. Bone marrow derived macro-phages (BMDMs) were differentiated as described (Brown G D, et al., (2003), J Exp Med 197:1119). Briefly, bone marrow from BL/6 mice was cultured in RPMI-10 with 15% L-cell conditioned media and 25 ng/ml recombinant M-CSF (R&D Systems, Minneapolis, Minn., United States). Cells were collected after 6 d and plated in 24-well plates at 5×10^5 cells/well.
Fungi were grown overnight, washed extensively to remove any shed proteins or polysaccharides, and normalized by OD600 or hemacytometer (these two methods produced equivalent results). For S. cerevisiae, live fungi were added to RAW264.7 macrophages at equivalent effector:target (E:T) ratio of 1:5 in 24-well plates and incubated for 6 h, when supernatants were collected for ELISA. […]
In FIG. 1A, C. albicans strains were exposed to RAW264.7 macrophages at a ratio of 2:1 (yeast:macrophage), and supernatants were collected after 6 h. […] After unbound fungi were washed off, macrophages were incubated for 6 h at 37° C., and supernatants were collected for TNFα quantitation.

anti-β-glucan antibody = test: Blocking of anti-β-glucan antibody binding to gas1Δ mutant; settings: S. cerevisiae gas1Δ
Protocol: Overnight cultures of strains were grown in YPD and stained with anti-β-glucan primary antibody (Biosupplies Inc., Parkville, Australia) and Cy3-labeled goat-anti-mouse secondary. […] Stained cells were adhered to clear-bottom plates with concanavalin A (Sigma) and scanned with Cellomics VTI fluorescence microscopic imager (Cellomics, Pittsburgh, Pa., United States) using Target Acquisition software (Zeiss, Oberkochen, Germany). Mean average intensity and standard deviation of average intensity measurements were used to identify strains with over two standard deviations greater β-glucan exposure. Initially matA mutant strains were screened, then the independently constructed matα counterparts were screened. […]
Fungi were grown overnight, washed, blocked in PBS+2% BSA, and stained with either the anti-β-glucan antibody (followed by Cy3- or PE-labeled secondary antibody), Alexa Fluor-labeled Dectin-CRD, or Dectin-CRD-anti-Myc. […] Fluorescence was quantified on a FACScalibur cytometer (Becton-Dickinson, Palo Alto, Calif., United States); cells were gated by forward and side scatter based on wild-type cell size and shape, and mean fluorescence intensity of 20,000 labeled cells was calculated using Cellquest software (Becton-Dickinson).

Substance | Mean fluorescence intensity (MFI), anti-β-glucan staining ([1]; one-eighth the CF MIC50, YPD) | Mean fluorescence intensity (MFI), anti-β-glucan staining ([1]; one-quarter the CF MIC50, YPD) | exposure of β-glucan on hyphae ([1]; subinhibitory doses of CF, RPMI 1640 (hyphal growth)) | viability of fungi ([2]; sub-inhibitory CF concentrations, YPD, propidium iodide) | cell death of hyphae ([2]; subinhibitory CF, RPMI 1640, microscopic examination) | MIC50 (C. albicans CAF2) [ng/mL] | increased elicitation of pro-inflammatory cytokines by unmasked C. albicans mutants after laminarin preincubation (β-glucan receptor; BMDMs preincubated 20 min on ice, yeast:macrophage 10:1, 6 h) | stimulation of macrophages by laminarin alone (β-glucan receptor; BMDMs, 100 μg/ml laminarin, no fungi, TNFα) | binding of anti-β-glucan antibody to gas1Δ mutant in presence of soluble β-glucan (anti-β-glucan antibody)
caspofungin acetate [CF] | 65 | 161 | dramatic increase | without loss of viability | did not show increased cell death | 2.5 |  |  | 
laminarin |  |  |  |  |  |  | great majority of the increased elicitation of pro-inflammatory cytokines could be blocked | does not stimulate | blocked
